Experimental data reported in US9701676B2, “Pro-neurogenic compounds” (Board of Regents of The University of Texas System, priority 2012, dated 2017).

System: proliferating neural precursor cells in the hippocampus (subgranular layer of the dentate gyrus)
Test: standard in vivo hippocampal neurogenesis assay (BrdU labelling, week-long intracranial mini-pump infusion)
Design: species or system mouse (C57/B6)
Conditions: 10 μM concentration, seven days of infusion at 0.5 μL/hour, daily IP BrdU; four 12 week old adult male C57/B6 mice; vehicle 14.5
Protocol: Compounds were administered at a concentration of 10 μM for each molecule. After seven days of infusion at a constant rate of 0.5 μL/hour, a total of 84 μL of volume will have left the pump (0.00084 μMoles) and entered the cerebrospinal fluid. The average volume of a brain from a 12 week old male, C57/B6 mouse in the study is 500 mm^3. […] Under these conditions, at the end of one week of infusion each compound would be present at 1.7 μMolar concentration. Since the actual amount of chemical compound in the brain is likely to be only a fraction of this predicted level, it is reasonable to estimate that compounds were administered at mid to low-nanomolar concentrations.
During compound infusion, animals were intraperitoneally (IP) injected daily with the thymidine analog, bromodeoxyuridine (BrdU), as a means of scoring the birth and survival of proliferating neural precursor cells in the hippocampus. Because both social interaction and voluntary exercise are known to stimulate hippocampal neurogenesis, mice were housed individually without access to running wheels throughout the screening period. Following the week-long period of compound administration, animals were perfused and sacrificed. Dissected brain tissue was fixed, embedded, sectioned, stained with antibodies to BrdU, and evaluated by light microcopy as a means of quantifying neurogenesis and survival of newborn neural precursor cells localized to the subgranular layer of the dentate gyms on the brain hemisphere contralateral to the side of mini-pump cannulation. Every fifth section throughout the entire rostral-caudal extent of the hippocampus was analyzed, and the total number of BrdU+ cells was normalized against the measured volume of the dentate gyms.
Intracranial infusions of either fibroblast growth factor 2 (FGF-2) or artificial cerebral spinal fluid (aCSF) vehicle via the same, week-long protocol were employed as positive and negative controls.
Compounds were evaluated for pro-neurogenic efficacy/neuroprotection in a standard in vivo hippocampal neurogenesis assay at 10 μM concentration in four 12 week old adult male C57/B16 mice.

Structure (SMILES) | (×10^−06) BrdU+ cells/mm^3 dentate gyrus
NC(Cc1c[nH]c2ccc(Br)cc12)C(=O)O (racemic) [P7C3-S207, 5-bromo-DL-tryptophan, reference compound] | 32.4 (×10^−06) BrdU+ cells/mm^3
COc1cccc(NCC(O)CN2c3ccc(Br)cc3CCc3cc(Br)ccc32)c1 (stereo not shown) [P7C3-S76] | 28.3 (×10^−06) BrdU+ cells/mm^3
OC(CN1c2ccccc2CCc2ccccc21)Cn1ccc2ccccc21 (stereo not shown) [P7C3-S132, 1-(10,11-dihydro-5H-dibenzo[b,f]azepin-5-yl)-3-(1H-indol-1-yl)propan-2-ol] | 22.8 (×10^−06) BrdU+ cells/mm^3
OC(CN1c2ccccc2CCc2ccccc21)Cn1c2ccccc2c2ccccc21 (stereo not shown) [P7C3-S133, 1-(9H-carbazol-9-yl)-3-(10,11-dihydro-5H-dibenzo[b,f]azepin-5-yl)propan-2-ol] | 20.2 (×10^−06) BrdU+ cells/mm^3
OC(CSc1ccccc1)CN1c2ccccc2CCc2ccccc21 (stereo not shown) [P7C3-S134, 1-(10,11-dihydro-5H-dibenzo[b,f]azepin-5-yl)-3-(phenylthio)propan-2-ol] | 19.4 (×10^−06) BrdU+ cells/mm^3
OC(COc1ccccc1)CN1c2ccccc2CCc2ccccc21 (stereo not shown) [P7C3-S135, 1-(10,11-dihydro-5H-dibenzo[b,f]azepin-5-yl)-3-phenoxypropan-2-ol] | 14.2 (×10^−06) BrdU+ cells/mm^3
CN(C)CC(O)CN1c2ccccc2CCc2ccccc21 (stereo not shown) [P7C3-S139, 1-(10,11-dihydro-5H-dibenzo[b,f]azepin-5-yl)-3-(dimethylamino)propan-2-ol] | 24.9 (×10^−06) BrdU+ cells/mm^3
NCC(O)CN1c2ccccc2CCc2ccccc21 (stereo not shown) [P7C3-S140, 1-amino-3-(10,11-dihydro-5H-dibenzo[b,f]azepin-5-yl)propan-2-ol] | 23.4 (×10^−06) BrdU+ cells/mm^3
CNCC(O)CN1c2ccccc2CCc2ccccc21 (stereo not shown) [P7C3-S143, 1-(10,11-dihydro-5H-dibenzo[b,f]azepin-5-yl)-3-(methylamino)propan-2-ol] | 14.5 (×10^−06) BrdU+ cells/mm^3
CC(C)NCC(O)CN1c2ccccc2CCc2ccccc21 (stereo not shown) [P7C3-S144, 1-(10,11-dihydro-5H-dibenzo[b,f]azepin-5-yl)-3-(isopropylamino)propan-2-ol] | 18.1 (×10^−06) BrdU+ cells/mm^3
CC(C)(C)NCC(O)CN1c2ccccc2CCc2ccccc21 (stereo not shown) [P7C3-S145, 1-(tert-butylamino)-3-(10,11-dihydro-5H-dibenzo[b,f]azepin-5-yl)propan-2-ol] | 25 (×10^−06) BrdU+ cells/mm^3
CN(C)CC(F)CN1c2ccccc2CCc2ccccc21 (stereo not shown) [P7C3-S148, 3-(10,11-dihydro-5H-dibenzo[b,f]azepin-5-yl)-2-fluoro-N,N-dimethylpropan-1-amine] | 22.6 (×10^−06) BrdU+ cells/mm^3
CN(C)C(CF)CN1c2ccccc2CCc2ccccc21 (stereo not shown) [P7C3-S149, 1-(10,11-dihydro-5H-dibenzo[b,f]azepin-5-yl)-3-fluoro-N,N-dimethylpropan-2-amine] | 23.2 (×10^−06) BrdU+ cells/mm^3
CNCC(F)CN1c2ccccc2CCc2ccccc21 (stereo not shown) [P7C3-S152, 3-(10,11-dihydro-5H-dibenzo[b,f]azepin-5-yl)-2-fluoro-N-methylpropan-1-amine] | 26.8 (×10^−06) BrdU+ cells/mm^3
COc1cccc(NCC(O)CN2c3ccccc3CCc3ccccc32)c1 (stereo not shown) [P7C3-S158, 1-(10,11-dihydro-5H-dibenzo[b,f]azepin-5-yl)-3-((3-methoxyphenyl)amino)propan-2-ol] | 25 (×10^−06) BrdU+ cells/mm^3
Brc1ccc2[nH]c3ccc(Br)cc3c2c1 [P7C3-S162, 3,6-dibromo-9H-carbazole] | 25.2 (×10^−06) BrdU+ cells/mm^3
